US20260250639A1, “REPROGRAMMING METHOD” (Babraham Institute, priority 2022, published 2026)

Key:
NSO4G neural stem cells = assay: Yamanaka factor-mediated reprogramming of NSO4G neural stem cells to iPSCs, flow cytometry of OCT4-GFP positive cells; format: cell-based, mouse; details: NSC reprogramming culture, end of reprogramming (day 15)
Excerpt: FIG. 1: Schematic of method of reprogramming of mouse neural stem cells into induced pluripotent stem (iPS) cells. The mouse neural stem cell (NSC) line NSO4G harbours the GFP transgene under the control of Oct4 regulatory elements. […] Upon reprogramming, iPSCs grow in colonies and express GFP, allowing their visualisation and isolation from the remaining, non-reprogrammed cells.
A-C) Yamanaka factor-mediated reprogramming of NSO4G neural stem cells. D) Yamanaka factor-mediated reprogramming of human fibroblasts. A) Schematic representation of the experimental design for data in panels B and C. B) Flow cytometry plots (left) and quantification data (right) for the number of GFP-positive cells at the end of reprogramming, in the presence of PADI4 or control shRNAs. C) Flow cytometry plots (left) and quantification data (right) for the number of GFP-positive cells at the end of reprogramming, in the presence of CI-amidine or vehicle control. D) Quantification of iPS colonies, as a measure of the degree of reprogramming, after Yamanaka factor-mediated reprogramming of human fibroblasts, in the presence of two independent PADI4 inhibitors (CI-amidine or GSK484) or vehicle controls. […]
To investigate the timing of PADI4 expression during reprogramming, the method of reprogramming neural stem cells (NSCs) to iPSCs described in Theunissen et al. (2011) Current Biology, 21(1): 65-71 (doi: https://doi.org/10.1016/j.cub.2010.11.074) was used (FIG. 1). […] At various reprogramming timepoints, the reprogramming cells were harvested and the levels of mRNA encoding PADI4 and NANOG were quantified by qPCR (FIG. 2A) and protein levels (FIG. 2B). […]
Medium was conditioned by culture on NSC reprogramming cultures (FIG. 5A, “Conditioned medium”, bottom panel) or by incubated in empty plates lacking cells under the same conditions (FIG. 5A, “Control medium”, top panel) and added to new reprogramming (receiving) cultures after every 24 h. Reprogramming efficiency of the receiving cultures was assessed by flow cytometry based GFP quantification at the end of the reprogramming assay (day 15). […]

[1] = test system: citrullinated histone H3 (H3Cit), product of PADI4 activity; assay: Western blot for citrullinated histone H3 in conditioned medium of NSC reprogramming cultures; format: cell-based, mouse; details: conditioned medium from reprogramming cultures, similar total histone H3
Excerpt: FIG. 7: Citrullinated histones are found in culture medium conditioned by reprogramming cultures. Immunoblot analysis for total histone H3 (top) and two different citrullination marks on histone H3 (middle and bottom) on conditioned medium of NSC reprogramming cells cultured in the presence or absence or the PADI4 inhibitor CI-amidine. Data from two independent experiments are shown. Citrullinated histone H3 is readily detected in the conditioned medium and inhibited by CI-amidine.
Based on this finding, the conditioned medium of Example 4 was analysed for the presence of H3Cit by Western blot (FIG. 7). Citrullinated histone H3 (H3Cit) can be readily detected in the conditioned medium from reprogramming cultures (FIG. 7, middle and lower panels labelled “H3CitR2” and H3CitR8”, lanes labelled “-CI-am”), and this is reduced in conditioned medium from reprogramming cultures in which the PADI4 inhibitor CI-amidine has been added (FIG. 7, middle and lower panels labelled “H3CitR2” and H3CitR8”, lanes labelled “+CI-am”), despite similar levels of total histone H3 being present (FIG. 7, top panel labelled “H3”).

human fibroblasts = assay: Yamanaka factor-mediated reprogramming of human fibroblasts, iPS colony count; format: cell-based; details: human fibroblast reprogramming culture without OCT4-GFP reporter, vs vehicle control
Excerpt: A-C) Yamanaka factor-mediated reprogramming of NSO4G neural stem cells. D) Yamanaka factor-mediated reprogramming of human fibroblasts. A) Schematic representation of the experimental design for data in panels B and C. B) Flow cytometry plots (left) and quantification data (right) for the number of GFP-positive cells at the end of reprogramming, in the presence of PADI4 or control shRNAs. C) Flow cytometry plots (left) and quantification data (right) for the number of GFP-positive cells at the end of reprogramming, in the presence of CI-amidine or vehicle control. D) Quantification of iPS colonies, as a measure of the degree of reprogramming, after Yamanaka factor-mediated reprogramming of human fibroblasts, in the presence of two independent PADI4 inhibitors (CI-amidine or GSK484) or vehicle controls. The inhibitors were administered throughout the course of reprogramming.
FIG. 10: Inhibition of extracellular chromatin component-sensing pathways inhibits reprogramming. A) Schematic representation of the extra-nuclear DNA sensing pathway cGAS/STING (left panel). Flow cytometry-based quantification of GFP-positive cells at the end of NSC reprogramming (day 15), in the presence of STING inhibitor H-151, vehicle control (DMSO) or no treatment (right panel). B) Schematic representation of the signalling pathway downstream of the Damage Associated Molecular Pattern (DAMP)-sensing Toll-Like Receptor 2 (TLR2; left panel). Flow cytometry-based quantification of GFP-positive cells at the end of NSC reprogramming (day 15), in the presence of TLR2 inhibitor MMG-11, vehicle control (DMSO) or no treatment (right panel). C) Colony count data for quantification of reprogramming of human fibroblast cells at the end of reprogramming (day 40) after treatment with STING inhibitor H-151 (left panel), TLR2 inhibitor MMG-11 (right panel) or vehicle control (DMSO).

Structure (SMILES)	proportion of OCT4-GFP positive cells (reprogramming cells) at the end of reprogramming (NSO4G neural stem cells)	citrullinated histone H3 (H3CitR2, H3CitR8) detected in conditioned medium [1]	number of colonies (successfully reprogrammed cells) (human fibroblasts)
NC(=O)[C@H](CCCN=C(N)CCl)NC(=O)c1ccccc1 [CI-amidine]	The same result is achieved	reduced	significantly reduced
COc1cc(C(=O)N2CC[C@@H](O)[C@@H](N)C2)cc2nc(-c3cc4ccccc4n3CC3CC3)n(C)c12 [GSK484]	–	–	significantly reduced
CCc1ccc(NC(=O)Nc2c[nH]c3ccccc23)cc1 [H-151]	significantly reduced	–	significantly reduced number of colonies
CCOC(=O)c1ccc(CC(=O)c2ccc(O)c(O)c2O)o1 [MMG-11]	significantly reduced	–	significantly reduced number of colonies
